Measurements from patent publication US20240408071A1, “NOVEL COMBINATION OF SEROTONIN RECEPTOR (5-HTR2B) ANTAGONIST AND AN IMMUNOMODULATOR AND CHEMOTHERAPEUTIC DRUGS FOR INHIBITION OF CANCER” (NATIONAL CENTRE FOR CELL SCIENCE, priority 2021, published 2024).

Key:
[1] = tested on: OT-II CD4 T cells; assay: OT-II peptide-specific proliferation of CFSE-tagged OT-II CD4 T cells in vitro; assay type: cell-based, mouse; conditions: BW-723C86 10 μM, OT-II peptide (Ova323-339), 5 days (FIG. 12A-B)
Description: FIG. 12 depicts that 5-HTR2B signalling affects the antigen-specific proliferation of CD4 T cells: (A-B) Total CD4 T cells were harvested from the lymph node of OT-II mice and they were tagged with CFSE and cultured in vitro in the presence or absence of OT-II peptide (Ova323-339), IL-2, 5-HTR2B agonist BW-723C86 (10 μM), Serotonin (20 μM) or 5-HTR2B antagonist RS-127445 (15 μM) for 5 days. After 5 days the proliferation of OT-II tetramer^+ CD4 T cells was measured and plotted as histogram overlay (A) or as statistical data (B). (C-D) Flow cytometric data and statistical analysis of the percentage of intra-tumoral OT-II-tetramer^+ IFNγ^+ CD4 T cell population from the control and RS-127445 treated MC38-ova tumor-bearing mice. (E-F) Flow cytometric data and statistical analysis of the percentage of intra-tumoral OT-II-tetramer^+ IFNγ^+ CD4 T cell population from the control and RS-127445 treated MC38-ova tumor-bearing mice. […]
A simple adoptive transfer experiment was performed to study the enhancement of CTL response in general or antigen-specific. […] The CFSE-tagged total lymph node cells from […] were cultured in the presence or absence of OT-II peptide (Ova323-339) 5-HTR2B agonist (BW-723C86), serotonin, and 5-HTR2B antagonist (RS-127445) as indicated in the figure for 5 days and the proliferation was measured (FIG. 12A-B). […]

[2] = tested on: OVA-specific CD8 and CD4 T cells in MC38-cOVA tumor; assay: OVA-specific T cell response in MC38-cOVA tumor-bearing mice (CFSE, tetramer flow cytometry); assay type: in vivo
Description: FIG. 11 depicts the effect of 5-HTR antagonists on the antigen-specific CTL response MC38 tumor model in mice: (A) Representative experimental plan of the adoptive transfer experiment where NRG mice. In brief, NRG mice were inoculated with MC38 on one flank and B16F10 cells on the other. These mice received total lymph node cells from naïve C57BL/6J mice or MC38 tumor-bearing control or RS-127445 treated mice. (B) Tumor volume data from the above-described experiment was measured and plotted (C) Immunocytochemistry data showing expression of H2-Kb-[…]^+ (red) on MC38 cells transfected with pCL-neo-OVA plasmid on the right side and MC38 cells without transfection. DAPI is used as a counterstain. (D-E) C7BL/6J mice were inoculated with an MC38-ova cell line and treated with RS-127445 or left untreated. After 10 days of such treatment, Total lymph node cells were harvested tagged with CFSE, and cultured in the presence of ovalbumin protein (50 μg/ml) for 5 days. After 5 days cells were checked for CFSE expression by flow cytometry to check proliferation. Here is the data (D) showing the CFSE in CD8^+ cells. The statistical data of the total percentage of CFSE^− CD8 T cells corresponding with the percentage of proliferated CD8 T cells were plotted. (F-G) Flow cytometric data and statistical analysis of the percentage of intra-tumoral H-2Kb^− […] tetramer^+ CD8 population from the control and RS-127445 treated MC38-ova tumor-bearing mice. (H-I) Flow cytometric data and statistical analysis of the percentage of intra-tumoral H-2Kb^− […] tetramer^+CD69^+ activated CD8 population from the control and RS-127445 treated MC38 tumor-bearing mice. (J-K) Flow cytometric data and statistical analysis of the percentage of intra-tumoral H-2K^b-[…] tetramer^+IFN-γ^+Granzyme B^+CD8 T cell population from the control and RS-127445 treated MC38 tumor-bearing mice. (D-E) Histogram overlay and statistical data comparison showing relative MFI of granzyme B on IFN-γ^+ OT-I-tetramer^+ CD8a^+ T cells from MC38-ova tumor of control and RS-127445 treated mice. The data shown are representative of one of the two independent experiments. All the statistical analysis was performed using either Student's t-test or two-way ANOVA using Sidak's multiple comparison test. *P<0.05; **P<0.01; […]; ****P<0.0001 Error bar represents mean±standard error of means (SEM).
FIG. 12 depicts that 5-HTR2B signalling affects the antigen-specific proliferation of CD4 T cells: (A-B) Total CD4 T cells were harvested from the lymph node of OT-II mice and they were tagged with CFSE and cultured in vitro in the presence or absence of OT-II peptide (Ova323-339), IL-2, 5-HTR2B agonist BW-723C86 (10 μM), Serotonin (20 μM) or 5-HTR2B antagonist RS-127445 (15 μM) for 5 days. After 5 days the proliferation of OT-II tetramer^+ CD4 T cells was measured and plotted as histogram overlay (A) or as statistical data (B). (C-D) Flow cytometric data and statistical analysis of the percentage of intra-tumoral OT-II-tetramer^+ IFNγ^+ CD4 T cell population from the control and RS-127445 treated MC38-ova tumor-bearing mice. (E-F) Flow cytometric data and statistical analysis of the percentage of intra-tumoral OT-II-tetramer^+ IFNγ^+ CD4 T cell population from the control and RS-127445 treated MC38-ova tumor-bearing mice. (G) Histogram overlay and statistical data comparison showing relative MFI of IL-10 on OT-II-tetramer^+ CD4^+ T cells from MC38-ova tumor of control and RS-127445 treated mice. All the statistical analysis was performed using either Student's ‘t’ test or two-way ANOVA using Sidak's multiple comparison test. *P<0.05; **P<0.01; […]; ****P<0.0001 Error bar represents mean±standard error of means (SEM).
A simple adoptive transfer experiment was performed to study the enhancement of CTL response in general or antigen-specific. […]

[3] = compared with other 5-HTR2B antagonists; cited from earlier work

SMILES | OT-II peptide-specific proliferation of OT-II CD4 T cells [1] | Ova-specific IFNγ+ CD4 T cells in the tumor ([2]; MC38-cOVA tumor, OT-II tetramer (FIG. 12C-D)) | Ova-specific IL-10+ CD4 T cells in the tumor ([2]; MC38-cOVA tumor, OT-II tetramer (FIG. 12E-G)) | CD69+ activated OVA-specific CTLs percentage in the tumor ([2]; OT-I tetramer (FIG. 11H-I)) | IFNγ+ granzyme B+ effector OVA-specific CTLs percentage in the tumor ([2]; OT-I tetramer (FIG. 11J-M)) | overall percentage of OVA-specific CD8 T cell in the tumor ([2]; OT-I tetramer, MC38-ova tumor (FIG. 11F-G)) | proliferation of CD8 T cells in the presence of OVA in vitro ([2]; cells from treated MC38-cOVA tumor-bearing mice, ovalbumin 50 μg/ml, 5 days, CFSE (FIG. 11D-E)) | bioavailability [3]
CC(N)Cc1c[nH]c2ccc(OCc3cccs3)cc12 (centres unmarked) [BW-723C86] | significantly reduced |  |  |  |  |  |  | 
CC(C)c1cc(-c2ccc(F)c3ccccc23)nc(N)n1 [RS-127445] |  | increased | reduced | enhanced | enhanced | did not enhance the overall percentage | proliferated at a better rate | higher bioavailability
